In US11413241B2, “Method for preparing a composition with a low dissolved oxygen content, comprising acetaminophen, and optionally one or more NSAIDs, and a composition obtained thereof” (Hyloris Developments SA, priority 2017, dated 2022):
One block for each compound: values may come before it.

Key:
[1] = Amount of acetaminophen at various points in time and different pH; format: physicochemical; settings: pH range 6.3-7.3, various points in time
From the text: The amount of acetaminophen was studied at varies points in time and for different pH's.

[2] = from literature; cited from earlier work
[3] = Dissolution/precipitation of sodium ibuprofen 2H2O alone in water at decreasing pH; format: physicochemical
[4] = Dissolution of sodium ibuprofen 2H2O in the acetaminophen-ibuprofen formulation at varying pH; format: physicochemical

- degradation of acetaminophen [1]: minimal degradation
SMILES: CC(=O)Nc1ccc(O)cc1 [acetaminophen, N-(4-hydroxyphenyl)acetamide]
- pH at which rate of degradation is minimal [2]: ~6

- pH at which precipitation is observed ([3]; 3.85 mg/ml sodium ibuprofen 2H2O in water, pH gradually decreased): 5.75
- precipitation ([3]; pH 6, stored 1 month at 25° C.): showed precipitation
- precipitation ([3]; pH 6.2, stored 1 month at 25° C.): precipitation was absent
SMILES: CC(C)Cc1ccc(C(C)C(=O)O)cc1 (stereo not shown) [ibuprofen]

- pH of composition ([3]; 3.85 mg/ml in water, before pH decrease): 8.80
- Dissolved ([3]; alone in water, pH 3): No
- Dissolved ([3]; alone in water, pH 4): No
- Dissolved ([3]; alone in water, pH 5): No
- Dissolved ([3]; alone in water, pH 5.5): No
- Dissolved ([3]; alone in water, pH 5.8): Yes
- Dissolved ([3]; alone in water, pH 6): Yes
- Dissolved ([3]; alone in water, pH 6.2): Yes
- Dissolved ([3]; alone in water, pH 6.4): Yes
- Dissolved ([3]; alone in water, pH 6.6): Yes
- Dissolved ([3]; alone in water, pH 6.8): Yes
- Dissolved ([3]; alone in water, pH 7): Yes
- Dissolved ([3]; alone in water, pH 7.5): Yes
- Dissolved ([3]; in water after 1 month storage at 25° C., pH 5.8): No
- Dissolved ([3]; in water after 1 month storage at 25° C., pH 6): No
- Dissolved ([3]; in water after 1 month storage at 25° C., pH 6.2): Yes
- Dissolved ([3]; in water after 1 month storage at 25° C., pH 6.4): Yes
- Dissolved ([3]; in water after 1 month storage at 25° C., pH 6.6): Yes
- Dissolved ([3]; in water after 1 month storage at 25° C., pH 6.8): Yes
- Dissolved ([3]; in water after 1 month storage at 25° C., pH 7): Yes
- Dissolved ([3]; in water after 1 month storage at 25° C., pH 7.5): Yes
- Dissolved ([4]; in the formulation 3 mg/ml Acetaminophen 10 mg/ml Ibuprofen, pH 6.2): Yes
- Dissolved ([4]; in the formulation 3 mg/ml Acetaminophen 10 mg/ml Ibuprofen, pH 6.3): Yes
- Dissolved ([4]; in the formulation 3 mg/ml Acetaminophen 10 mg/ml Ibuprofen, pH 6.4): Yes
- Dissolved ([4]; in the formulation 3 mg/ml Acetaminophen 10 mg/ml Ibuprofen, pH 6.6): Yes
- Dissolved ([4]; in the formulation 3 mg/ml Acetaminophen 10 mg/ml Ibuprofen, pH 7): Yes
- Dissolved ([4]; in the formulation Acetaminophen - Ibuprofen, 1 month, pH 6.2): No
- Dissolved ([4]; in the formulation Acetaminophen - Ibuprofen, 1 month, pH 6.3): Yes
- Dissolved ([4]; in the formulation Acetaminophen - Ibuprofen, 1 month, pH 6.4): Yes
- Dissolved ([4]; in the formulation Acetaminophen - Ibuprofen, 1 month, pH 6.6): Yes
- Dissolved ([4]; in the formulation Acetaminophen - Ibuprofen, 1 month, pH 7): Yes
- Dissolved ([4]; in the formulation Acetaminophen - Ibuprofen, 6 months, 25° C., pH 6.3): Yes
- Dissolved ([4]; in the formulation Acetaminophen - Ibuprofen, 6 months, 25° C., pH 6.4): Yes
- Dissolved ([4]; in the formulation Acetaminophen - Ibuprofen, 6 months, 25° C., pH 6.6): Yes
- Dissolved ([4]; in the formulation Acetaminophen - Ibuprofen, 6 months, 25° C., pH 7): Yes
SMILES: CC(C)Cc1ccc(C(C)C(=O)O)cc1 (stereo not shown) [sodium ibuprofen 2H2O]
